Source: patent US12172989B2, “Histone acetyltransferase (HAT) inhibitor and use thereof” (SHANGHAI INSTITUTE OF MATERIA MEDICA, CHINESE ACADEMY OF …, priority 2018, dated 2024)

The compounds below were run against T1, histone acetyltransferase p300 (Homo sapiens, UniProt Q09472) (assay: Histone acetyltransferase (p300) activity assay (radioisotope, [3H]-Ac-CoA)). Conditions: p300 0.05 nM; histone peptide 600 nM, [3H]-Ac-CoA 250 nM; 60 min at room temperature; read-out: Inhibition rate IC50.
T1 construct: purchased BPS Corporation 50071
T1 sequence (Q09472 1284-1673 limits assumed): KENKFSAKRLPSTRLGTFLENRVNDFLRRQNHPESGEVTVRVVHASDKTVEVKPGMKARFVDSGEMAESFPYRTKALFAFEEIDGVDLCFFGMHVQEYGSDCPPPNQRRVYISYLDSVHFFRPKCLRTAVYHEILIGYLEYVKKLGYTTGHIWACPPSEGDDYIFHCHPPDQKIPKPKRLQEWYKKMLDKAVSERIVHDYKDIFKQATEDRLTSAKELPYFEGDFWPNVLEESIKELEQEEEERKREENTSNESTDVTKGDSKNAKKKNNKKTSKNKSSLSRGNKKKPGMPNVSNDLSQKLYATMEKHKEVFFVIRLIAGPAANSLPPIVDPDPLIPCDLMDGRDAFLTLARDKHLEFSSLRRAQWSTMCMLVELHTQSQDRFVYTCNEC
Format: biochemical
Description: The reaction was finally terminated with Ac-CoA (Sigma, Cat. No. A2056) without isotope labeling. If the activity of the acetyltransferase p300 was inhibited, the isotope signal cannot be detected on the substrate polypeptide. Therefore, the inhibitory activity of the compound against the acetyltransferase p300 was evaluated.
In the enzyme reaction system, 200 nL of a diluted compound (100% DMSO) was first transferred to a test plate using Echo, where the final concentration of the compound in the enzyme reaction system ranges from 0.25 to 5000 nM. Then 10 μL/well of p300 protein (final concentration of 0.05 nM) was transferred therein, and incubated with the compound for 15 min at room temperature. Then 10 μL/well of a substrate mixture (final concentrations of histone peptide and [^3H]—Ac-CoA were 600 nM and 250 nM, respectively) was added to start the enzyme-catalyzed reaction, and incubated at room temperature for 60 min. Then 10 µL/well of a 250 μM cold Ac-CoA solution was added to stop the reaction. Finally 25 μL/well of the reaction solution was transferred to a 384-well Flashplate (Perkin Elmer, Cat. No. SMP410A001PK), and incubated at room temperature for 1 h. The resultant was washed with double distilled water+0.1% Tween-20 three times. The signal value was read by using Microbeta. The data was analyzed by using GraphPad Prism 5.0 software to obtain IC50.

Compound | IC50 [nM]
CNC(=O)Nc1ccc2c(c1)CC[C@]21OC(=O)N(CC(=O)N2Cc3ccccc3CC[C@@H]2C2CC2)C1=O [SYY-B017-1] | 640
CNC(=O)Nc1ccc2c(c1)CC[C@@]21OC(=O)N(CC(=O)N2Cc3ccccc3CC[C@@H]2C2CC2)C1=O [SYY-B017-2] | 270
CNC(=O)Nc1ccc2c(c1)CC[C@]21OC(=O)N(CC(=O)N2Cc3ccccc3CC[C@@H]2C(C)C)C1=O [SYY-B020-1] | 200
CNC(=O)Nc1ccc2c(c1)CC[C@@]21OC(=O)N(CC(=O)N2Cc3ccccc3CC[C@@H]2C(C)C)C1=O [SYY-B020-2] | 45
CNC(=O)Nc1ccc2c(c1)CC[C@]21OC(=O)N(CC(=O)N2Cc3ccc(F)cc3CC[C@@H]2C)C1=O [SYY-B022-1] | 54
CNC(=O)Nc1ccc2c(c1)CC[C@@]21OC(=O)N(CC(=O)N2Cc3ccc(F)cc3CC[C@@H]2C)C1=O [SYY-B022-2] | 12
CCC[C@H]1CCc2ccccc2CN1C(=O)CN1C(=O)O[C@]2(CCc3cc(NC(=O)NC)ccc32)C1=O [SYY-B024-1] | 47
CNC(=O)Nc1ccc2c(c1)CC[C@]21OC(=O)N(CC(=O)N2Cc3ccc(F)cc3CC[C@@H]2C2CC2)C1=O [SYY-B026-1] | 22
CNC(=O)Nc1ccc2c(c1)CC[C@]21OC(=O)N(CC(=O)N2Cc3ccccc3CC[C@@H]2C(F)(F)F)C1=O [SYY-B028-1] | 1100
CNC(=O)Nc1ccc2c(c1)CC[C@@]21OC(=O)N(CC(=O)N2Cc3ccccc3CC[C@@H]2C(F)(F)F)C1=O [SYY-B028-2] | 55
CNC(=O)Nc1ccc2c(c1)CC[C@]21OC(=O)N(CC(=O)N2Cc3cc(F)ccc3OC[C@@H]2C2CC2)C1=O [SYY-B030-1] | 230
CNC(=O)Nc1ccc2c(c1)CC[C@@]21OC(=O)N(CC(=O)N2Cc3cc(F)ccc3OC[C@@H]2C2CC2)C1=O [SYY-B030-2] | 230
CNC(=O)Nc1ccc2c(c1)CC[C@@]21OC(=O)N(CC(=O)N2Cc3ccc(F)cc3CC[C@@H]2C(F)(F)F)C1=O [SYY-B032-2] | 37
CNC(=O)Nc1ccc2c(c1)CCC21NC(=O)N(CC(=O)N2Cc3ccc(F)cc3CC[C@@H]2C2CC2)C1=O (some centres unmarked) [SYY-B034] | > 100
NC1(C(=O)Nc2ccc3c(c2)CC[C@]32OC(=O)N(CC(=O)N3Cc4ccc(F)cc4CC[C@@H]3C3CC3)C2=O)CC1 [SYY-B036-1] | 180
NC1(C(=O)Nc2ccc3c(c2)CC[C@@]32OC(=O)N(CC(=O)N3Cc4ccc(F)cc4CC[C@@H]3C3CC3)C2=O)CC1 [SYY-B036-2] | 1500
CC(C)(N)C(=O)Nc1ccc2c(c1)CC[C@]21OC(=O)N(CC(=O)N2Cc3ccc(F)cc3CC[C@@H]2C2CC2)C1=O [SYY-B037-2] | > 100
CC(C)(N)C(=O)Nc1ccc2c(c1)CC[C@@]21OC(=O)N(CC(=O)N2Cc3ccc(F)cc3CC[C@@H]2C2CC2)C1=O [SYY-B038-2] | > 100
NC1(C(=O)Nc2ccc3c(c2)CC[C@]32OC(=O)N(CC(=O)N3Cc4ccc(F)cc4CC[C@@H]3C3CC3)C2=O)CCC1 [SYY-B040-1] | 130

Compound | IC50 [nM]
NC1(C(=O)Nc2ccc3c(c2)CC[C@@]32OC(=O)N(CC(=O)N3Cc4ccc(F)cc4CC[C@@H]3C3CC3)C2=O)CCC1 [SYY-B040-2] | 160
Cn1cc(-c2ccc3c(c2)CCC32NC(=O)N(CC(=O)N3Cc4ccc(F)cc4CC[C@@H]3C3CC3)C2=O)cn1 (some centres unmarked) [SYY-B044] | > 50
CNC(=O)Cn1cc(-c2ccc3c(c2)CCC32NC(=O)N(CC(=O)N3Cc4ccc(F)cc4CC[C@@H]3C3CC3)C2=O)cn1 (some centres unmarked) [SYY-B046] | > 50
CNC(=O)Nc1ccc2c(c1)CC[C@]21OC(=O)N(CC(=O)N2Cc3cc(F)ccc3OC[C@H]2C(F)(F)F)C1=O [SYY-B057-1] | 8.9
CNC(=O)Nc1ccc2c(c1)CC[C@]21OC(=O)N(CC(=O)N2Cc3cccnc3CC[C@H]2C2CC2)C1=O [SYY-B081-1] | < 200
CNC(=O)Nc1ccc2c(c1)CC[C@@]21OC(=O)N(CC(=O)N2Cc3cccnc3CC[C@H]2C2CC2)C1=O [SYY-B081-2] | 6.8
CNC(=O)Nc1ccc2c(c1)CCC21NC(=O)N(CC(=O)N2Cc3cc(F)c(F)cc3CC[C@H]2C2CC2)C1=O (some centres unmarked) [SYY-B088] | < 10
CNC(=O)Nc1ccc2c(c1)CC[C@]21OC(=O)N(CC(=O)N2Cc3cc(F)c(F)cc3CC[C@H]2C2CC2)C1=O [SYY-B090-1] | 1.37
CNC(=O)Nc1ccc2c(c1)CC[C@@]21OC(=O)N(CC(=O)N2Cc3cc(F)c(F)cc3CC[C@H]2C2CC2)C1=O [SYY-B090-2] | 1.58
Cn1cc(-c2ccc3c(c2)CCCC32OC(=O)N(CC(=O)N3Cc4cc(F)ccc4OC[C@H]3C3CC3)C2=O)cn1 (some centres unmarked) [SYY-B094] | < 100
CNC(=O)Nc1ccc2c(c1)CC[C@]21OC(=O)N(CC(=O)N2Cc3ncccc3CC[C@H]2C2CC2)C1=O [SYY-B095-1] | 11.7
CNC(=O)Nc1ccc2c(c1)CC[C@@]21OC(=O)N(CC(=O)N2Cc3ncccc3CC[C@H]2C2CC2)C1=O [SYY-B096-2] | 7.4
CNC(=O)Nc1ccc2c(c1)CC[C@]21OC(=O)N(CC(=O)N2Cc3ccncc3CC[C@H]2C2CC2)C1=O [SYY-B097-1] | 42.3
CNC(=O)Nc1ccc2c(c1)CC[C@@]21OC(=O)N(CC(=O)N2Cc3ccncc3CC[C@H]2C2CC2)C1=O [SYY-B097-2] | 4
CNC(=O)Nc1ccc2c(c1)CC[C@]21OC(=O)N(CC(=O)N2Cc3sccc3OC[C@H]2C2CC2)C1=O [SYY-B100-1] | 20.6
CNC(=O)Nc1ccc2c(c1)CC[C@@]21OC(=O)N(CC(=O)N2Cc3sccc3OC[C@H]2C2CC2)C1=O [SYY-B100-2] | 16.8
CNC(=O)Nc1ccc2c(c1)CC[C@]21OC(=O)N(CC(=O)N2Cc3ccsc3CC[C@H]2C2CC2)C1=O [SYY-B102-1] | 13.9
CNC(=O)Nc1ccc2c(c1)CC[C@@]21OC(=O)N(CC(=O)N2Cc3ccsc3CC[C@H]2C2CC2)C1=O [SYY-B102-2] | 0.55
CNC(=O)Nc1ccc2c(c1)CCC21NC(=O)N(CC(=O)N2Cc3ccsc3CC[C@H]2C2CC2)C1=O (some centres unmarked) [SYY-B104] | < 20

Compound | IC50 [nM]
CNC(=O)Nc1ccc2c(c1)COCC21NC(=O)N(CC(=O)N2Cc3cc(F)ccc3OC[C@H]2C2CC2)C1=O (some centres unmarked) [SYY-B106] | < 20
CNC(=O)Nc1ccc2c(c1)CCC21NC(=O)N(CC(=O)N2Cc3sccc3OC[C@H]2C2CC2)C1=O (some centres unmarked) [SYY-B108] | < 50
Cn1cc(-c2ccc3c(c2)OCC32NC(=O)N(CC(=O)N3Cc4cc(F)ccc4OC[C@H]3C3CC3)C2=O)cn1 (some centres unmarked) [SYY-B110] | < 10
CNC(=O)Nc1ccc2c(c1)COCC21OC(=O)N(CC(=O)N2Cc3cc(F)ccc3OC[C@H]2C2CC2)C1=O (some centres unmarked) [SYY-B112] | < 10
CNC(=O)Nc1ccc2c(c1)CC[C@]21OC(=O)N(CC(=O)N2Cc3sc(C)c(C)c3CC[C@H]2C2CC2)C1=O [SYY-B116-1] | 140
CNC(=O)Nc1ccc2c(c1)CC[C@@]21OC(=O)N(CC(=O)N2Cc3sc(C)c(C)c3CC[C@H]2C2CC2)C1=O [SYY-B116-2] | 2
CNC(=O)Nc1ccc2c(c1)CC[C@@]21OC(=O)N(CC(=O)N2Cc3sc(C)c(C)c3OC[C@H]2C2CC2)C1=O [SYY-B118-2] | 6.6
CNC(=O)Nc1ccc2c(c1)CCC21NC(=O)N(CC(=O)N2Cc3ccsc3OC[C@H]2C2CC2)C1=O (some centres unmarked) [SYY-B122] | < 10
CNC(=O)Nc1ccc2c(c1)CCC21NC(=O)N(CC(=O)N2Cc3sccc3CC[C@H]2C2CC2)C1=O (some centres unmarked) [SYY-B124] | < 20
CNC(=O)Nc1ccc2c(c1)CC[C@@]21OC(=O)N(CC(=O)N2Cc3sccc3CC[C@H]2C2CC2)C1=O [SYY-B126-2] | 0.5
Cn1cc(-c2ccc3c(c2)S(=O)(=O)C[C@]32NC(=O)N(CC(=O)N3Cc4cc(F)ccc4OC[C@H]3C(F)(F)F)C2=O)cn1 [SYY-B130] | < 10
Cn1cc(-c2ccc3c(c2)C(F)C[C@]32NC(=O)N(CC(=O)N3Cc4cc(F)ccc4OC[C@H]3C3CC3)C2=O)cn1 (some centres unmarked) [SYY-B132-2] | < 10
CNC(=O)Nc1ccc2c(c1)CC[C@]21OC(=O)N(CC(=O)N2Cc3cnccc3CC[C@H]2C2CC2)C1=O [SYY-B136-1] | < 10
CNC(=O)Nc1ccc2c(c1)CC[C@@]21OC(=O)N(CC(=O)N2Cc3cnccc3CC[C@H]2C2CC2)C1=O [SYY-B136-2] | < 10
CNC(=O)Nc1ccc2c(c1)CC[C@@]21OC(=O)N(CC(=O)N2Cc3sccc3OC[C@H]2C(F)(F)F)C1=O [SYY-B140-2] | 7
CNC(=O)Nc1ccc2c(c1)CCC21NC(=O)N(CC(=O)N2Cc3sccc3OC[C@H]2C(F)(F)F)C1=O (some centres unmarked) [SYY-B142] | < 50
Cn1cc(-c2ccc3c(c2)CCC32OC(=O)N(CC(=O)N3Cc4sccc4OC[C@H]3C(F)(F)F)C2=O)cn1 (some centres unmarked) [SYY-B144] | < 50
CNC(=O)Nc1ccc2c(c1)OCC21NC(=O)N(CC(=O)N2Cc3cc(F)ccc3OC[C@H]2C2CC2)C1=O (some centres unmarked) [SYY-B156] | < 30
